The source of these data is patent publication US20100261246A1, “METHOD FOR INHIBITING TELOMERASE REACTION” (PANASONIC CORPORATION, priority 2009, published 2010).

One experiment relates to TITANIUM Taq polymerase. Kind of experiment: PCR control (36-bp PCR amplification product) in S7700 kit one-mix reaction, Bioanalyzer 2100. Type of experiment: biochemical. The settings on record: TMPyP concentration not less than 3 μM. The protocol: Therefore, TITANIUM […] polymerase (manufactured by Clontech Laboratories) was used in the present studies.
For example, it is highly probable that materials which nonspecifically bind to double-stranded DNAs inhibit PCR.
The S7700 kit includes a set of a template DNA and a primer for such ascertainment in the Primer Mix, and a 36-bp PCR amplification product is obtained from the set when the PCR is carried out.
Therefore, when the effect of a material expected to inhibit the telomerase reaction is verified using the S7700 kit, it is necessary to confirm that the telomerase reaction product is not detected in final results of electrophoresis, and that the 36-bp PCR product is normally amplified.
First, in accordance with the protocol of the kit, a telomerase solution was prepared from the attached control cell pellet. Next, a reaction solution in a total volume of 20 μL was prepared by mixing 2 μL of 10× TRAP Reaction buffer, 0.4 μL of 50× dNTP Mix, 0.4 μL of TS primer, 0.4 μL of Primer Mix, 0.4 μL of TITANIUM Taq polymerase, 14.8 μL of milliQ water (purified water), and 1.6 μL of the telomerase solution prepared as described above.
Subsequently, the telomerase reaction was allowed by standing this reaction solution under a condition of 30° C. for 30 min. Thereafter, PCR was carried out by repeating 33 times a thermo cycle of: 30 sec at 94° C.; 30 sec at 59° C.; and 1 min at 72° C. […]

Experiment [1] has as its system TaKaLa LA Taq Hot Start Version (polymerase reaction). Description: PCR control band in the separate telomerase reaction / PCR experiment. The settings on record: 10 μM, no addition of λDNA. Type of experiment: biochemical. The procedure: (§1) Moreover, effects of inhibiting telomerase by TMPyP and anionic phthalocyanines were compared in Comparative Example 3 and Example 4 to 5 below. In these experiments, the S7700 kit was used similarly to the aforementioned Comparative Examples 1 to 2 and Examples 1 to 3. However, in Comparative Examples 1 to 2 and Examples 1 to 3 described above, the reagents required only for the telomerase reaction and PCR were all mixed first, and the telomerase reaction and PCR were carried out sequentially by regulating the reaction temperature. To the contrary, in the following Comparative Example 3 and Examples 4 to 5, only the reagents required for the telomerase reaction were first mixed to carry out a telomerase reaction, and a part of the reaction solution and the reagents required for the PCR were mixed to carry out the PCR.
(§2) Next, 4 μL of a solution prepared by diluting the solution after the telomerase reaction 20 times with milliQ water, 0.2 μL of 50× dNTP Mix, 0.2 μL of TS primer, 0.2 μL of Primer Mix, 0.1 μL of TaKaLa LA Taq Hot Start Version (manufactured by Takara Bio Inc.), 1 μL of 10× LA PCR buffer II (Mg^2+ plus) (buffer solution included in TaKaLa LA Taq Hot Start Version), and 4.3 μL of milliQ water were mixed to prepare a PCR solution in a total volume of 10 μL. Then, PCR was carried out by allowing this PCR solution to stand under temperature conditions in which a thermo cycle of: 30 sec at 95° C.; 30 sec at 59° C.; and 30 sec at 72° C. was repeated 30 times.
(§3) Finally, the solution after the PCR was electrophoresed on a 10% polyacrylamide gel, and stained with GelStar Nucleic Acid Stain (manufactured by Takara Bio Inc.). […] In the order from the leftmost lane, the results with final concentrations of TMPyP being 0 M, 0.1 μM, 0.3 μM, 1 μM, 3 μM and 10 μM are shown.

Experiment [2] deals with telomerase. Kind of experiment: Telomerase activity measurement with S7700 kit, telomerase reaction and PCR carried out sequentially in one mix, ladder peaks by Bioanalyzer 2100. The format is biochemical. To be noted: 1.1 μM of TMPyP added.
Method: In this experiment, comparative studies of effects of inhibiting telomerase by an anionic phthalocyanine and cationic porphyrin (TMPyP) that is a conventionally known typical material having an effect of inhibiting telomerase were carried out using a kit for telomerase activity measurement manufactured by Millipore Corporation (TRAPEZE Telomeraze Detection Kit S7700).
TRAPEZE Telomeraze Detection Kit S7700 (hereinafter, merely referred to as S7700 kit) is a kit that includes 10× TRAP Reaction buffer, 50× dNTPs Mix, TS primer, Primer Mix, and a control cell pellet.
The TS primer is an oligo DNA consisting of 5′-[sequence]-3′, and serves as an initiation sequence of the telomerase reaction upon binding of telomerase, similarly to a human telomeric DNA sequence.
Therefore, the Primer Mix in the S7700 kit includes RP primer. This primer is an oligo DNA having a sequence complementary to the sequence elongated by the telomerase reaction, and thus, the telomerase reaction product can be amplified to a detectable level on electrophoresis by carrying out PCR using the aforementioned TS primer and the RP primer.
As described above, the telomerase reaction and PCR are carried out sequentially in the telomerase activity measurement using the S7700 kit. […]
Experiment [3] concerns telomerase. Description: Telomerase reaction carried out first, then PCR of the diluted reaction solution, gel electrophoresis, with or without λDNA. Type of experiment: biochemical. The settings on record: final concentrations 0.1 to 10 μM. The procedure: as §1
In addition, in each of the following Comparative Example 3 and Examples 4 to 5, experiments were carried out with or without addition of a λDNA in the telomerase reaction. Addition of the λDNA was intended to reproduce for mimicking the conditions in which a large amount of double-stranded DNAs are present as in the case of genomic DNAs in cells, and to study the effects of inhibiting telomerase by TMPyP or anionic phthalocyanines even under conditions more approximate to those in vivo, by adding a λDNA.
Telomerase reaction solution in a total volume of 10 μL were prepared by mixing 1 μL of 10× TRAP Reaction buffer, 0.2 μL of 50× dNTP Mix, 0.2 μL of TS primer, 4 μL of the telomerase solution prepared in Comparative Example 1, 2 μL of the TMPyP aqueous solution, and 2.6 μL of milliQ water (the reaction solutions having final TMPyP concentrations of 0 M, 0.1 μM, 0.3 μM, 1 μM, 3 μM and 10 μM were prepared, respectively). Then, the reaction solutions were stood under a condition of 30° C. for 60 min to allow a telomerase reaction to be carried out.
as §2, §3
On the other hand, experiments in which a λDNA was added to the telomerase reaction solution were also carried out. More specifically, in preparing the telomerase reaction solution described above, 2.6 μL of a λDNA solution (manufactured by Takara Bio Inc.) was mixed in place of mixing 2.6 μL of milliQ water. Other telomerase reaction temperature/time schedule, PCR solution preparation condition, PCR temperature/time schedule, electrophoresis condition were just the same.

In the next experiment the test system is single-stranded DNA. Description: Absorbance 480 to 800 nm of phthalocyanine mixed with single-stranded DNA solution. Type of experiment: binding. The settings on record: 15 μM compound solution, DNA 50 μM, pH7. The protocol: A solution of 50 mM HEPES and 100 mM NaCl, pH7 (total volume: 100 μL) containing a single-stranded DNA consisting of a sequence of 5′-[…]-3′ sequence (SEQ ID NO: 3) at a concentration of 50 μM was prepared, which was incubated at 90° C. for 5 min, and thereafter cooled to 0° C. at a rate of temperature fall of 2° C./min, followed by finally incubating at 0° C. for 2 hrs. The DNA in thus resulting solution was a single-stranded DNA even after the incubation (hereafter, the solution referred to as “single-stranded DNA solution”).
(§4) Next, the aforementioned CuPC solution and single-stranded DNA solution, and the aforementioned CuPC solution and double-stranded DNA solution were similarly mixed, respectively. And then the absorbance of these liquid mixtures was measured at 480 to 800 nm. FIG. 9(A) and FIG. 9(B) show the results of the measurement in the cases of the single-stranded DNA solution and the double-stranded DNA solution, respectively.
(§5) Next, the aforementioned NiPC solution and single-stranded DNA solution, and the aforementioned NiPC solution and double-stranded DNA solution were similarly mixed, respectively; the absorbance of these liquid mixtures was measured at 480 to 800 nm. FIG. 11(A) and FIG. 11(B) show the results of the measurement in the cases of the single-stranded DNA solution and the double-stranded DNA solution, respectively. In each drawing, the result obtained when the NC solution was used is also shown together.
(§6) Next, the aforementioned PC solution and single-stranded DNA solution, and the aforementioned PC solution and double-stranded DNA solution were similarly mixed, respectively; the absorbance of these liquid mixture was measured at 480 to 800 nm. FIG. 13(A) and FIG. 13(B) show the results of the measurement in the cases of the single-stranded DNA solution and the double-stranded DNA solution, respectively. In each drawing, the result obtained when the NC solution was used is also shown together.
(§7) Next, the aforementioned CoPC solution and single-stranded DNA solution, and the aforementioned CoPC solution and double-stranded DNA solution were similarly mixed, respectively, and then the absorbance of these liquid mixtures was measured at 480 to 800 nm. FIG. 15(A) and FIG. 15(B) show the results of the measurement in the cases of the single-stranded DNA solution and the double-stranded DNA solution, respectively. In each drawing, the result obtained when the NC solution was used is also shown together.

The test system of another experiment is double-stranded DNA. Kind of experiment: Absorbance 480 to 800 nm of phthalocyanine mixed with double-stranded DNA solution. The settings on record: 15 μM compound solution, DNA 50 μM, pH7. The format is binding. The procedure: A solution of 50 mM HEPES and 100 mM NaCl, pH7 (total volume: 100 μL) containing a single-stranded DNA consisting of a sequence of 5′-AGAAGAGAAAGA-3′ (SEQ ID NO: 4) and a single-stranded DNA consisting of a sequence of 5′-TCTTTCTCTTCT-3′ (SEQ ID NO: 5) at each concentration of 50 μM was prepared, which was incubated at 90° C. for 5 min, and thereafter cooled to 0° C. at a rate of temperature fall of 2° C./min, followed by finally incubating at 0° C. for 2 hrs. Since the aforementioned two kinds of DNAs are complementary to one another, both DNAs form a double-stranded DNA in the solution as a result of the incubation (hereafter, the solution referred to as “double-stranded DNA solution”).
as §4, §5, §6, §7

The test system of experiment [4] is G-quadruplex structure (human telomeric oligo DNA). Description: Absorbance 480 to 800 nm of phthalocyanine mixed with G-quadruplex solutions. The format is binding. The settings on record: for interaction with the G-quadruplex structure (absorption peak): 15 μM compound solution, 50 mM HEPES, 100 mM NaCl, pH7. The protocol:
Hereinafter, the interaction between anionic phthalocyanines and various DNAs was studied in Examples 6, 7, 8 and 9. For this purpose, a solution containing a G-quadruplex structure, a solution including a single-stranded DNA, and a solution containing a double-stranded DNA were first prepared according to the following procedures.
A solution of 50 mM HEPES and 100 mM NaCl, pH7 (total volume: 100 μL) containing a single-stranded DNA consisting of a sequence of 5′-[…]-3′ (SEQ ID NO: 2; this sequence being similar to a sequence of a human telomere portion, and thus the DNA referred to as “human telomeric oligo DNA” hereafter) was incubated at 90° C. for 5 min, and thereafter cooled to 0° C. at a rate of temperature fall of 2° C./min, followed by finally incubating at 0° C. for 2 hrs.
The concentrations of the human telomeric oligo DNA contained in the solution were 0, 0.5, 2, 5, 10, 25, 50 and 100 μM.
The absolute values of the positive and negative peaks were maximized for the solution having the human telomeric oligo DNA concentration of 100 μM, and dropped in the order of 50, 25, 10, 5, 2 and 0.5 μM. […] Hereafter, G-quadruplex solutions prepared from the solutions having human telomeric oligo DNA concentrations of 100, 50, 25, 10, 5, 2 and 0.5 μM are referred to as G-quadruplex solutions A, B, C, D, E, F and G, respectively. On the other hand, the solution without the human telomeric oligo DNA contained therein is referred to as NC solution.
First, a solution of 50 mM HEPES and 100 mM NaCl, pH7 (total volume: 20 μL) containing 15 μM CuPC was prepared. Then, this CuPC solution was mixed with each of the G-quadruplex solutions C, D, E and F and the NC solution, and the absorbance of these liquid mixtures were measured at 480 to 800 nm.
First, a solution of 50 mM HEPES and 100 mM NaCl, pH7 (total volume: 20 μL) containing 15 μM NiPC was prepared. Then, this NiPC solution was mixed with each of the G-quadruplex solutions D, E, F and G, and the NC solution, and the absorbance of these liquid mixtures were measured at 480 to 800 nm.
First, a solution of 50 mM HEPES and 100 mM NaCl, pH7 (total volume: 20 μL) containing 15 μM PC was prepared. Then, this PC solution was mixed with each of the G-quadruplex solutions D, E, F and G, and the NC solution, and the absorbance of these liquid mixtures were measured at 480 to 800 nm.
First, a solution of 50 mM HEPES and 100 mM NaCl, pH7 (total volume: 20 μL) containing 15 μM CoPC was prepared. Then, this CoPC solution was mixed with each of the G-quadruplex solutions B, C, D and G, and the NC solution, and the absorbance of these liquid mixtures were measured at 480 to 800 nm.

As for `C[n+]1ccc(-c2c3nc(c(-c4cc[n+](C)cc4)c4ccc([nH]4)c(-c4cc[n+](C)cc4)c4nc(c(-c5cc[n+](C)cc5)c5ccc2[nH]5)C=C4)C=C3)cc1` [TMPyP, reference compound], the “DNA concentration corresponding to the PCR control peak” value in the experiment on TITANIUM Taq polymerase was “not beyond the detection limit”. Also, the “amplification of the PCR control (band)” value in experiment [1] was “became weaker”. The “total DNA concentration corresponding to the ladder peaks in the reaction product” value with telomerase [2] stood at 2.7 ng/µL. For the same compound, the “inhibition of the telomerase reaction (band of telomerase reaction product)” value with telomerase [3] (in the presence of λDNA) is “not inhibited at all”; in the experiment with telomerase [3] (no addition of λDNA), “inhibited the telomerase reaction”.
On to “Cobalt(II) phthalocyanine tetracarboxylic acid [CoPC]”, for which the “interaction with the single-stranded DNA (absorption spectrum vs NC solution)” value with single-stranded DNA is recorded as “an interaction did not occur”. Further, the “interaction with the double-stranded DNA (absorption spectrum vs NC solution)” value with double-stranded DNA is given as “an interaction did not occur”. Besides, the “interaction with the G-quadruplex structure (absorption peak)” value (“interaction … (absorption peak)” for short) in experiment [4] is reported as “an interaction occurred”. Also, the “elevation of the peaks in the range of 640 to 720 nm with G-quadruplex” value in experiment [4] (compared with CuPC, NiPC or PC) is “less than the resultant elevation when CuPC, NiPC or PC was used”.
On to Phthalocyanine tetrasulfonic acid [PC], for which the “interaction with the single-stranded DNA (absorption spectrum vs NC solution)” value with single-stranded DNA is on record as “an interaction did not occur”. In addition, the “interaction with the double-stranded DNA (absorption spectrum vs NC solution)” value with double-stranded DNA is “an interaction did not occur”. Further, the “interaction … (absorption peak)” value in experiment [4] was “an interaction occurred”.
In the case of “Zinc(II) phthalocyanine tetrasulfonic acid [ZnPC]”, in experiment [4], the “interaction … (absorption peak)” value is recorded as “specifically interacted with a G-quadruplex structure”.
